Assay results taken from patent EP0297435A2, “Aminopropanol derivatives of 3-(3'-hydroxyphenyl)-1-propanone, process for their preparation and medicines containing these compounds” (Helopharm W. Petrik GmbH & Co.KG., priority 1987, dated 1989).

Assays:
[1] = system: Purkinje-Fasern aus Hundeherzen; assay: Electrophysiological studies on Purkinje fibres from dog hearts (Vmax); assay type: cell-based, Hund; conditions: for C20 Vmax / IC20: Purkinje-Fasern aus Hundeherzen; for Prematurity Faktor Vmax: Vorzeitigkeitsindex, activity on premature extrasystoles; for Rate-Faktor von Vmax: specifically stronger activity at higher frequencies; for IC20: read-out: C20 Vmax
Text: Die antiarrhythmische Wirksamkeit der erfindungsgemäßen Verbindungen wurde sowohl anhand von elektrophysiologischen Studien an Purkinje-Fasern aus Hundeherzen sowie mit Hilfe von Ouabaininduzierten ventrikulären Tachykardien bei Hunden bestimmt. […]
Als zusätzliches Kriterium wurde der Vorzeitigkeitsindex (Prematurity-Faktor) bestimmt, der die erwünschte Wirksamkeit der erfindungsgemäßen Verbindungen bei vorzeitigen Extrasystolen charakterisiert.

[2] = system: Meerschweinchen-Papillarmuskel; assay: Effect on contraction force of the heart, guinea pig papillary muscle; assay type: cell-based; conditions: contraction force (negative inotropy); for IC20: read-out: C20 CF
Text: Die Wirkung auf die Kontraktionskraft des Herzens wurde am Meerschweinchen-Papillarmuskel untersucht. Hämodynamische Studien wurden bei gesunden, wie auch akut infarzierten Hunden durchgeführt.

[3] = Acute toxicity LD50 in rats, i.v.; conditions: rat, in vivo, iv; Ratte (i.v.); read-out: LD₅₀
[4] = Acute toxicity LD50 in mice, i.v.; conditions: mouse, in vivo, iv; Maus (i.v.); read-out: LD₅₀

Row | Structure (SMILES) | C20 Vmax [1] | Prematurity Faktor Vmax [1] | Rate-Faktor von Vmax [1] | C20 CF [2] | IC20 [1] [µM] | IC20 [2] [µM] | LD50 [3] [mg/kg] | LD50 [4] [mg/kg]
1 | CCCNCC(O)COc1ccccc1C(=O)CCc1ccccc1 (centres unmarked) [A, Propafenon, reference compound] | 3,7 µM | 0,97 | 1,08 | 5,3 µM | – | – | – | –
2 | CCCNCC(O)COc1cccc(CCC(=O)c2ccc(OC)cc2)c1.Cl (centres unmarked) [Beispiel 7, 1-(4-Methoxyphenyl)-3-[3′-(2-hydroxy-3-n-propylaminopropoxy)-phenyl]-1-propanon-hydrochlorid] | – | 0,90 | 1,21 | – | 2.9 | 6 | – | –
3 | CCC(C)(C)NCC(O)COc1cccc(CCC(=O)c2cc(OC)c(OC)c(OC)c2)c1.Cl (centres unmarked) [Beispiel 8, 1-(3,4,5-Trimethoxyphenyl)-3-[3′-(2-hydroxy-3-tert.-pentylaminopropoxy)-phenyl]-1-propanon-hydrochlorid] | – | – | 5,00 | – | 1.6 | 3 | – | –
4 | COc1cc(C(=O)CCc2cccc(OCC(O)CNC(C)C)c2)cc(OC)c1OC.Cl (centres unmarked) [Beispiel 9, 1-(3,4,5-Trimethoxyphenyl)-3-[3′-(2-hydroxy-3-isopropylaminopropoxy)-phenyl]-1-propanon-hydrochlorid] | – | 1,01 | 1,26 | – | 9.1 | 15 | – | –
5 | COc1cc(C(=O)CCc2cccc(OCC(O)CNC(C)(C)C)c2)cc(OC)c1OC.Cl (centres unmarked) [Beispiel 10, 1-(3,4,5-Trimethoxyphenyl)-3-[3′-(2-hydroxy-3-tert.-butylaminopropoxy)-phenyl]-1-propanon-hydrochlorid] | – | 0,99 | 1,17 | – | 2.6 | 5 | – | –
6 | CCC(C)(C)NCC(O)COc1cccc(CCC(=O)c2c(C)cc(C)cc2C)c1.Cl (centres unmarked) [Beispiel 11, 1-(2,4,6-Trimethylphenyl)-3-[3′-(2-hydroxy-3-tert.-pentylaminopropoxy)-phenyl]-1-propanon-hydrochlorid] | – | 0,95 | 1,15 | – | 3.3 | 10 | – | –
7 | Cc1cc(C)c(C(=O)CCc2cccc(OCC(O)CNC(C)(C)C)c2)c(C)c1.Cl (centres unmarked) [Beispiel 14, 1-(2,4,6-Trimethylphenyl)-3-[3′-(2-hydroxy-3-tert.-butylaminopropoxy)-phenyl]-1-propanon-hydrochlorid] | – | 0,95 | 1,47 | – | 11.9 | 20 | – | –
8 | Cc1cc(C)c(C(=O)CCc2cccc(OCC(O)CNC(C)C)c2)c(C)c1.Cc1cc(C)c(C(=O)CCc2cccc(OCC(O)CNC(C)C)c2)c(C)c1.O=C(O)C(=O)O (centres unmarked) [Beispiel 15, 1-(2,4,6-Trimethylphenyl)-3-[3′-(2-hydroxy-3-isopropylaminopropoxy)-phenyl]-1-propanon-semi-oxalat] | 1,0 µM | 0,94 | 1,09 | 7,0 µM | – | – | – | –
9 | Cc1cc(C)c(CC(=O)Cc2cccc(OCC(O)CNC(C)(C)C)c2)c(C)c1.Cl (centres unmarked) [Beispiel 17, 1-(2,4,6-Trimethylphenyl)-3-[3′-(2-hydroxy-3-tert.-butylaminopropoxy)-phenyl]-propanon-hydrochlorid] | – | 0,99 | 1,12 | – | 1.7 | 15 | – | –
10 | CCCNCC(O)COc1cc(CCC(=O)c2ccc(OC)c(OC)c2)ccc1OC.Cl (centres unmarked) [Beispiel 22, 1-(3,4-Dimethoxyphenyl)-3-[3′-(2-hydroxy-3-n-propylaminopropoxy)-4′-methoxyphenyl]-1-propanon-hydrochlorid] | – | 0,99 | 0,97 | – | 3.2 | 7 | – | –
11 | COc1ccc(C(=O)CCc2ccc(OC)c(OCC(O)CNC(C)C)c2)cc1OC.Cl (centres unmarked) [Beispiel 23, 1-(3,4-Dimethoxyphenyl)-3-[3′-(2-hydroxy-3-isopropylaminopropoxy)-4′-methoxyphenyl]-1-propanon-hydrochlorid] | – | 1,05 | 5,00 | – | 2.2 | 6 | – | –
12 | COc1ccc(C(=O)CCc2ccc(OC)c(OCC(O)CNC(C)(C)C)c2)cc1OC.Cl (centres unmarked) [Beispiel 25, 1-(3,4-Dimethoxyphenyl)-3-[3′-(2-hydroxy-3-tert.-butylaminopropoxy)-4′-methoxyphenyl]-1-propanon-hydrochlorid] | – | 1,01 | 1,21 | – | 2.4 | 6 | – | –
13 | CCC(C)(C)NCC(O)COc1cc(CCC(=O)c2ccc(OC)c(OC)c2)ccc1OC.Cl (centres unmarked) [Beispiel 27, 1-(3,4-Dimethoxyphenyl)-3-[3′-(2-hydroxy-3-tert.-pentylaminopropoxy)-4′-methoxyphenyl]-1-propanon-hydrochlorid] | – | 1,05 | 1,25 | – | 3.5 | 15 | – | –
14 | CCC(C)(C)NCC(O)COc1cc(CCC(=O)c2cc(OC)c(OC)c(OC)c2)ccc1OC.Cl (centres unmarked) [Beispiel 28, 1-(3,4,5-Trimethoxyphenyl)-3-[3′-(2-hydroxy-3-tert.-pentylaminopropoxy)-4′-methoxyphenyl]-1-propanon-hydrochlorid] | – | 1,01 | – | – | 1.4 | 6 | 11 | 16
15 | COc1ccc(CCC(=O)c2cc(OC)c(OC)c(OC)c2)cc1OCC(O)CNC(C)C.Cl (centres unmarked) [Beispiel 30, 1-(3,4,5-Trimethoxyphenyl)-3-[3′-(2-hydroxy-3-isopropylaminopropoxy)-4′-methoxyphenyl]-1-propanon-hydrochlorid] | – | 1,01 | 1,13 | – | 2.5 | 5 | – | –
16 | COc1ccc(CCC(=O)c2cc(OC)c(OC)c(OC)c2)cc1OCC(O)CNC(C)(C)C.Cl (centres unmarked) [Beispiel 31, 1-(3,4,5-Trimethoxyphenyl)-3-[3′-(2-hydroxy-3-tert.-butylaminopropoxy)-4′-methoxyphenyl]-1-propanon-hydrochlorid] | – | 0,97 | 1,15 | – | 1.4 | 5 | 13 | 18
17 | COc1ccc(CCC(=O)c2cc(OC)c(OC)c(OC)c2)cc1OCC(O)CNC1CCCCC1.Cl (centres unmarked) [Beispiel 32, 1-(3,4,5-Trimethoxyphenyl)-3-[3′-(2-hydroxy-3-cyclohexylaminopropoxy)-4′-methoxyphenyl]-1-propanon-hydrochlorid] | – | 1,05 | 1,25 | – | 1.1 | 9 | – | –
18 | COc1ccc(CCC(=O)c2ccccc2OC)cc1OCC(O)CNC(C)(C)C.Cl (centres unmarked) [Beispiel 35, 1-(2-Methoxyphenyl)-3-[3′-(2-hydroxy-3-tert.-butylaminopropoxy)-4′-methoxyphenyl]-1-propanon-hydrochlorid] | – | 0,91 | – | – | 3 | 10 | – | –
19 | CCCNCC(O)COc1cc(CCC(=O)c2ccc(C)cc2)ccc1OC.Cl (centres unmarked) [Beispiel 37, 1-(4-Methylphenyl)-3-[3′-(2-hydroxy-3-n-propylaminopropoxy)-4′-methoxyphenyl]-1-propanon-hydrochlorid] | – | 0,94 | 1,22 | – | 2.6 | 5 | – | –
20 | COc1ccc(CCC(=O)c2ccc(C)cc2)cc1OCC(O)CNC(C)(C)C.Cl (centres unmarked) [Beispiel 39, 1-(4-Methylphenyl)-3-[3′-(2-hydroxy-3-tert.-butylaminopropoxy)-4′-methoxyphenyl]-1-propanon-hydrochlorid] | – | 0,94 | 1,51 | – | 1.2 | 4 | – | –
21 | COc1ccc(CCC(=O)c2ccc(C)cc2)cc1OCC(O)CN1CCCCC1.Cl (centres unmarked) [Beispiel 40, 1-(4-Methylphenyl)-3-[3′-(2-hydroxy-3-piperidinopropoxy)-4′-methoxyphenyl]-1-propanon-hydrochlorid] | – | 0,94 | 1,33 | – | 1.3 | 5 | – | –
22 | CCCNCC(O)COc1cc(CCC(=O)c2c(C)cc(C)cc2C)ccc1OC.O=C(O)C(=O)O (centres unmarked) [Beispiel 44, 1-(2,4,6-Trimethylphenyl)-3-[3′-(2-hydroxy-3-n-propylaminopropoxy)-4′-methoxyphenyl]-1-propanon-oxalat] | – | 1,10 | 1,03 | – | 1.7 | 14 | – | –
23 | CCC(C)(C)NCC(O)COc1cc(CCC(=O)c2ccc3ccccc3c2)ccc1OC.Cl (centres unmarked) [Beispiel 47, 1-(2-Naphthyl)-3-[3′-(2-hydroxy-3-tert.-pentylaminopropoxy)-4′-methoxyphenyl]-1-propanon-hydrochlorid] | – | 1,10 | 1,22 | – | 6.1 | 17 | – | –
24 | CCCNCC(O)COc1cc(CCC(=O)c2ccc3ccccc3c2)ccc1OC.Cl (centres unmarked) [Beispiel 48, 1-(2-Napthyl)-3-[3′-(2-hydroxy-3-n-propylaminopropoxy)-4′-methoxyphenyl]-1-propanon-hydrochlorid] | 1,1 µM | 0,90 | 1,43 | 9,0 µM | – | – | – | –
25 | COc1ccc(CCC(=O)c2ccc3ccccc3c2)cc1OCC(O)CNC(C)C.Cl (centres unmarked) [Beispiel 49, 1-(2-Naphthyl)-3-[3′-(2-hydroxy-3-isopropylaminopropoxy)-4′-methoxyphenyl]-1-propanon-hydrochlorid] | – | 0,50 | 4,00 | – | 12.1 | 14 | – | –
